From patent US20240382564A1, “Methods and Compositions for Treating Muscular Dystrophy and Memory Impairment” (Allysta Pharmaceuticals, Inc., priority 2023, published 2024)
Entries after “also recorded” stand apart in the source; their conditions may differ. Where no end group is shown, it is not given here. [ ]: non-standard residue; d: D form. Nva = CCC[C@H](N)C(=O)O

Columns and labels:
Format in all cases: in vivo, mouse
D2.mdx mice [1] = assay: Muscle cytokine protein profiling (LEGENDplex); details: HD
Protocol: (§1) D2.mdx mice were treated with ALY688 at two different dosages; high dose (HD; 15 mg/kg body weight/day) or low dose (LD; 3 mg/kg body weight/day) dissolved in saline. A separate group of mice were treated with saline alone (VEH, vehicle). Treatment was provided via subscapular subcutaneous injections from 7 days of age to 28-30 days. […] At 28-30 days of age, mice were anaesthetized with isoflurane vaporized in medical air (21% oxygen) at a 2 L/min flow rate. Due to tissue limitations in limb muscle, certain measures were performed separately in tibialis anterior and quadriceps across several phases of breeding. Following the treatment protocol, in situ quadriceps force assessments were then performed in one limb followed by removal of the quadriceps from the other limb for mitochondrial assessments, diaphragm for in vitro force assessments and finally other tissues for further processing as described below. Muscle and visceral organs weights were normalized to tibia length. Tissue collected from the first phase were utilized in force, histological, mitochondrial measures (respiration, mH2O2 and calcium retention capacity) and western analyses (diaphragm and quadriceps only). A second phase was then collected and utilized for cytokine profiling, qPCR analyses and additional westerns (TA only). Serum was collected from both phase 1 and 2 and utilized for serum CK analysis. All animals were utilized in in vivo functional assays (grip strength, cage hang time and voluntary wheel running).
Tibialis anterior and diaphragm samples were homogenized in lysis buffer containing (in mM) (20 Tris/HCl, 150 NaCl, 1 EDTA, 1 EGTA, 1% Triton X-100, 2.5 Na4O7P2, 1 Na3VO4, pH 7.0) supplemented with protease (Roche) and phosphatase inhibitors (Sigma). Samples were diluted two-fold in the assay buffer before loading to the plates with beads. According to the manufacturer's instructions, levels of TGF-β, TNF-α, IL-1β, IL-6 and IL-10 in the homogenates were measured using LEGENDplex™ Mouse Custom Panel. Assay was performed in the Attune NxT flow cytometer (Thermo Fisher). The FCS files generated on the flow cytometer were analyzed using the LEGENDplex™ cloud-based analysis software.

D2.mdx mice [2] = assay: Functional assays (grip strength, cage hang time, voluntary wheel running) and serum creatine kinase
Protocol: as §1
Voluntary wheel running, cage hang time and forelimb grip strength were assessed two days before sacrifice. Serum derived from cardiac puncture at the time of sacrifice were assessed spectrofluorometrically for creatine kinase activity (U/L).

D2.mdx mice [3] = assay: Novel object recognition test; details: 15 mg/kg b.w. daily, days 7 to 28 of age
Protocol: Male D2.mdx mice originated from a colony maintained at York University (Toronto, Canada) and sourced from Jackson Laboratories (Stock Number 013141, Bar Harbor, United States). Mice were treated daily from days 7 to 28 of age with ALY688 at 15 mg/kg b.w. (D2.mdx-ALY688) or saline control (D2.mdx-VEH). This age was chosen given it captures an early stage of disease progression in cardiac and skeletal muscle. Mice were sacrificed 20-24 hr after the last dose. Breeding of wildtype mice was unsuccessful. Instead, three-week-old wildtype DBA/2J WT mice (D2A) were obtained from Jackson Laboratories (Stock number 000671, Bar Harbor, United States) and allowed to acclimatize for one week before sacrifice. Mice were housed in standard 12:12-hr light:dark cycles and were allowed access to standard rodent chow and water ad libitum. 4 days prior to sacrifice, all groups underwent novel object recognition acclimatization and testing as described below. Mice were anesthetized under 5% isoflurane vaporized in medical air (21% oxygen) at a flow rate of 2 L/min and then maintained at 2-3% prior to euthanasia by exsanguination. […]
The novel object recognition test (NOR) was performed as previously described in literature. […] Sessions were recorded with a cell-phone video camera secured above the apparatus. […] Discrimination ratio (DR) was calculated as follows: DR=(Time(object 2)−Time(object 1))/Total time.

D2.mdx mice [4] = assay: Serum cytokine profiling (LEGENDplex)
Protocol: Male D2.mdx mice originated from a colony maintained at York University (Toronto, Canada) and sourced from Jackson Laboratories (Stock Number 013141, Bar Harbor, United States). Mice were treated daily from days 7 to 28 of age with ALY688 at 15 mg/kg b.w. (D2.mdx-ALY688) or saline control (D2.mdx-VEH). This age was chosen given it captures an early stage of disease progression in cardiac and skeletal muscle. Mice were sacrificed 20-24 hr after the last dose. Breeding of wildtype mice was unsuccessful. Instead, three-week-old wildtype DBA/2J WT mice (D2A) were obtained from Jackson Laboratories (Stock number 000671, Bar Harbor, United States) and allowed to acclimatize for one week before sacrifice. Mice were housed in standard 12:12-hr light:dark cycles and were allowed access to standard rodent chow and water ad libitum. 4 days prior to sacrifice, all groups underwent novel object recognition acclimatization and testing as described below. Mice were anesthetized under 5% isoflurane vaporized in medical air (21% oxygen) at a flow rate of 2 L/min and then maintained at 2-3% prior to euthanasia by exsanguination. Muscles were removed and used for another investigation (under review at the time of this submission). The right and left hippocampus were then quickly dissected from the brain with a portion placed immediately into ice-cold BIOPS, containing (in mM): 50 MES Hydrate, 7.23 K2EGTA, 2.77 CaK2EGTA, 20 imidazole, 0.5 dithiothreitol, 20 taurine, 5.77 ATP, 15 PCr, and 6.56 MgCl2·6H2O (pH 7.1) or flash-frozen in liquid nitrogen and stored at −80° C. for RNA isolation and western blotting. All experiments and procedures were approved by the Animal Care Committee at York University (AUP Approval Number 2016-18) in accordance with the Canadian Council on Animal Care.
Protein contents of TGF-β, TNF-α, IL-1β, IL-6 and IL-10 in serum were measured by flow cytometry using LEGENDplex™ Mouse Custom Panel (BioLegend; San Diego, CA, USA). […] The FCS files generated on the flow cytometer were analyzed using the LEGENDplex™ cloud-based analysis software.

Question: With [dN]IP[Nva]LY[dS]FA[dS]-NH2 [ALY688] as the substance, how does the IL-6 protein content (D2.mdx mice [1]; diaphragm) read?
Answer: Its IL-6 protein content is 69.1 % increase vs VEH.

Question: What about the IL-10 protein content (D2.mdx mice [1]; diaphragm) of the same substance?
Answer: Its IL-10 protein content is “not different between groups”.

Question: And the TGF-β protein content (D2.mdx mice [1]; diaphragm)?
Answer: Its TGF-β protein content is 20.3 % increase vs VEH.

Question: What about the TNF-α protein content (D2.mdx mice [1]; diaphragm) of the same substance?
Answer: Its TNF-α protein content is “not different between groups”.

Question: What about the “prevention of the increase in TNF-α protein content” value (D2.mdx mice [1]; tibialis anterior, VEH 40.6 pg/ml, not detectable in wildtype) of the same substance?
Answer: Its value is 83.9%.

Question: And the serum creatine kinase (D2.mdx mice [2]; D2.mdx groups)?
Answer: The serum creatine kinase was 3.1-to-5.2 fold increase vs WT.

Question: What about the “grip strength, cage hang time and voluntary wheel running, comparison between D2.mdx groups” value (D2.mdx mice [2]; VEH, LD, HD) of the same substance?
Answer: Its value is “similar”.

Question: What about the “grip strength, cage hang time and voluntary wheel running” value (D2.mdx mice [2]; all D2.mdx groups) of the same substance?
Answer: Its value is −15.1% to −91.0.

Question: And the serum creatine kinase (D2.mdx mice [2]; low dose vs other D2.mdx groups)?
Answer: The serum creatine kinase was “increases seen with the low dose”.

Question: And the “recognition memory (discrimination index, NOR test)” value (D2.mdx mice [3])?
Answer: Its value is “completely prevented; also recorded: improved recognition memory; also recorded: normalized”.

Question: And the “serum IL-1β” value (D2.mdx mice [4]; relative to D2.mdx-VEH)?
Answer: The value was “increased”.

Question: What about the “serum IL-6” value (D2.mdx mice [4]; vs D2.mdx-VEH) of the same substance?
Answer: Its value is “attenuated”.

Question: What about the “serum IL-10” value (D2.mdx mice [4]; vs wildtype) of the same substance?
Answer: Its value is “increasing”.
